In BindingDB's records for doi:10.1016/j.bmcl.2008.10.113 (Ucb Pharma, 2008):

Target: Bcl-xL
Assay: Inhibition of GST fused Bcl-xL binding to biotinylated 16 mer Bak-BH3 peptide by HTRF-LANCE assay

Cc1cc(C(=O)N(c2ccccc2)c2ccccc2)nn1-c1ccccc1C(=O)N1Cc2ccccc2C[C@H]1CN(C)C [1-(2-((S)-3-((dimethylamino)methyl)-1,2,3,4-tetrahydroisoquinoline-2-carbonyl)phenyl)-5-methyl-N,N-diphenyl-1H-pyrazole-3-carboxamide]
IC50: 6.79 µM

CNC[C@@H]1Cc2ccccc2CN1C(=O)c1ccccc1-n1nc(C(=O)N(c2ccccc2)c2ccccc2)cc1C [5-methyl-1-(2-((S)-3-((methylamino)methyl)-1,2,3,4-tetrahydroisoquinoline-2-carbonyl)phenyl)-N,N-diphenyl-1H-pyrazole-3-carboxamide]
IC50: 12.6 µM

Cc1c(Br)c(C(=O)N(c2ccccc2)c2ccccc2)nn1-c1ccccc1C(=O)N1Cc2ccccc2C[C@H]1CO [4-bromo-1-(2-((S)-3-(hydroxymethyl)-1,2,3,4-tetrahydroisoquinoline-2-carbonyl)phenyl)-5-methyl-N,N-diphenyl-1H-pyrazole-3-carboxamide]
IC50: 2.41 µM

CC(=O)NC[C@@H]1Cc2ccccc2CN1C(=O)c1ccccc1-n1nc(C(=O)N(c2ccccc2)c2ccccc2)cc1C [1-(2-((S)-3-(acetamidomethyl)-1,2,3,4-tetrahydroisoquinoline-2-carbonyl)phenyl)-5-methyl-N,N-diphenyl-1H-pyrazole-3-carboxamide]
IC50: 9.69 µM

CCOC(=O)[C@@H]1Cc2ccccc2CN1C(=O)c1ccccc1-n1nc(C(=O)N(c2ccccc2)c2ccccc2)cc1C [(3S)-ethyl 2-(2-(3-(diphenylcarbamoyl)-5-methyl-1H-pyrazol-1-yl)benzoyl)-1,2,3,4-tetrahydroisoquinoline-3-carboxylate]
IC50: 18 µM

Cc1cc(C(=O)N(c2ccccc2)c2ccccc2)nn1-c1ccccc1C(=O)N1Cc2ccccc2C[C@H]1CN [1-(2-((S)-3-(aminomethyl)-1,2,3,4-tetrahydroisoquinoline-2-carbonyl)phenyl)-5-methyl-N,N-diphenyl-1H-pyrazole-3-carboxamide]
IC50: 11.4 µM

COC[C@@H]1Cc2ccccc2CN1C(=O)c1ccccc1-n1nc(C(=O)N(c2ccccc2)c2ccccc2)cc1C [1-(2-((S)-3-(methoxymethyl)-1,2,3,4-tetrahydroisoquinoline-2-carbonyl)phenyl)-5-methyl-N,N-diphenyl-1H-pyrazole-3-carboxamide]
IC50: 5.57 µM

Cc1c(Cl)c(C(=O)N(c2ccccc2)c2ccccc2)nn1-c1ccccc1C(=O)N1Cc2ccccc2C[C@H]1CO [4-chloro-1-(2-((S)-3-(hydroxymethyl)-1,2,3,4-tetrahydroisoquinoline-2-carbonyl)phenyl)-5-methyl-N,N-diphenyl-1H-pyrazole-3-carboxamide]
IC50: 2.28 µM
